We go through twelve compounds from ChEMBL document CHEMBL1201862, “PubChem BioAssay data set” (2004).

SMILES strings stand for the structures.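 Values below derive from 48-hour exposures of cells grown in 96-well plates, with endpoints linearly interpolated between the two concentrations bracketing the appropriate inhibition level. Abbreviation: GI50, concentration required for 50% inhibition of growth.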 Calls of active or inactive are those of the source. Cut-off read from the data, not from the text of the source: active = GI50 up to about 1.1 µM and inactive = higher. Starred links: 1 amine or outer side, 2 acyl side, 3 side chain; linkers in the order of their positions; H or OH if unused. Non-standard residues stand in square brackets, D forms with d. Residues, ends and D or L forms follow the SMILES beside them. X35 = C=CCC(O[*:1])C(=O)[*:2]; NMeV = CN[CH](C(=O)O)C(C)C; NMeA = CN[CH](C)C(=O)O; βAla = NCCC(=O)O

Holding throughout (experiment): NCI-60 cell line screen, 48 h
Experiment [1] relates to IGROV-1.
The subject of experiment [2] is ACHN.
Experiment [3] relates to OVCAR-4.
The test system of experiment [4] is T47D.
The subject of experiment [5] is SF-539.
Experiment [6] relates to RPMI-8226.
Experiment [7] relates to M14.
Experiment [8] deals with RXF 393.
Experiment [9] relates to SNB-75.
Experiment [10] has as its system SF-268.
Experiment [11] deals with TK-10.
Experiment [12] relates to 786-0.
Experiment [13] concerns OVCAR-3.
Experiment [14] deals with KM12.
In experiment [15] the test system is NCI-H226.
Experiment [16] deals with HT-29.
In experiment [17] the test system is SF-295.
Experiment [18] has as its system LOX IMVI.
In experiment [19] the test system is Malme-3M.

For the compound `COc1ccc2oc(C(=O)N3CC(CCl)c4ccc(N)cc43)cc2c1` (centres undefined), the GI50 in experiment [1] was 0.213 µM (active); in experiment [2], 0.147 µM (active); in experiment [3] it was 0.286 µM (active); in experiment [4], 0.31 µM (active); in experiment [5] it was 0.481 µM (active); in [6], 0.226 µM (active). Further, the GI50 in experiment [7] is 0.805 µM (active); in [8] it was 0.249 µM (active); in experiment [9] it was 0.308 µM (active); in experiment [10], 0.354 µM (active); in experiment [11] it was 2.9 µM (inactive); in experiment [12] it was 0.133 µM (active). Moreover, the GI50 in experiment [13] was 0.918 µM (active); in experiment [14], 0.242 µM (active); in experiment [15] it was 1.16 µM (inactive); in experiment [16], 0.357 µM (active); in experiment [17], 0.344 µM (active); in experiment [18], 0.356 µM (active).
Take `CC1(C)CC(=O)C(=CNc2nc(-c3ccc(Br)cc3)cs2)C(=O)C1`: the GI50 in [1] is 29.6 µM (inactive); in [2], 37 µM (inactive); in experiment [3], 37.5 µM (inactive); in [4], 32.9 µM (inactive); in experiment [5], 24.8 µM (inactive); in [7], 20.5 µM (inactive). In addition, the GI50 was 6.35 µM (inactive) in experiment [9]; 11.5 µM (inactive) in experiment [11]; 25.5 µM (inactive) in [12]; 22.3 µM (inactive) in experiment [13]; 34 µM (inactive) in experiment [14]; 45.3 µM (inactive) in experiment [15]. Besides, the results for the GI50 in [16], in experiment [17] and in experiment [18] were 29.9 µM (inactive), 39 µM (inactive) and 20.9 µM (inactive), respectively.
As to `CC1=C2CN(C(=O)OCC(C)C)CCC2C2=C(C(=O)c3ccccc3C2=O)C1C` (centres undefined), the GI50 in experiment [1], in [3], in experiment [4], in experiment [6], in experiment [7] and in experiment [8] was > 10 µM (inactive) in each case. The GI50 in experiment [9], in [10], in experiment [11], in [12], in [14] and in experiment [16] was > 10 µM (inactive) in each case. The GI50 in [17], in experiment [18] and in experiment [19] was > 10 µM (inactive) throughout.
Consider `CCOP(=O)(OCC)/C(=C/NC(=S)c1ccncc1)C(=O)OC`, for which the GI50 in experiment [1], in [2], in experiment [3], in [4], in [5] and in experiment [6] was > 100 µM (inactive) each time. The GI50 in [7], in experiment [8], in experiment [10], in experiment [11], in [12] and in experiment [13] was > 100 µM (inactive) throughout. Further, the GI50 in [14], in experiment [15], in experiment [16], in experiment [17] and in [18] was > 100 µM (inactive) each time.
`COc1ccc(C=C2C(=O)NC(=S)NC2=O)c2ccccc12`: the GI50 was 38.3 µM (inactive) in [1]; 97.5 µM (inactive) in experiment [2]; > 100 µM (inactive) in experiment [3]; 32.1 µM (inactive) in experiment [4]; 22 µM (inactive) in [5]; 34.5 µM (inactive) in [6]. Besides, the GI50 in experiment [7] is 45 µM (inactive); in experiment [8], 20.7 µM (inactive); in [10], 34.5 µM (inactive); in experiment [11] it was 7.6 µM (inactive); in [12], 47 µM (inactive); in experiment [13], 24 µM (inactive). In addition, the GI50 in experiment [14] was 44.3 µM (inactive); in [15], 0.179 µM (active); in [16], 28.2 µM (inactive); in [17], 31.3 µM (inactive); in experiment [18], 34.4 µM (inactive).
As for `COc1c(-c2ccccc2)oc2c(CP(=O)(OC)OC)cccc2c1=O`, the GI50 in experiment [1] is > 100 µM (inactive); in experiment [4], > 100 µM (inactive); in [5] it was > 100 µM (inactive); in experiment [6], 14.6 µM (inactive); in experiment [7], > 100 µM (inactive); in [8], > 100 µM (inactive). In addition, the GI50 in experiment [11], in experiment [12], in [13], in experiment [17] and in experiment [19] was > 100 µM (inactive) throughout.
Consider `COc1ccc(O)c(/C=N\Nc2ccccc2)c1`, for which the GI50 was 7.85 µM (inactive) in experiment [2]; 8.45 µM (inactive) in [3]; 0.402 µM (active) in experiment [4]; 12.2 µM (inactive) in experiment [5]; 0.021 µM (active) in experiment [6]; 19 µM (inactive) in experiment [7]. Moreover, the GI50 in experiment [8] is 84.3 µM (inactive); in experiment [9] it was 49.9 µM (inactive); in [10], 13.1 µM (inactive); in experiment [12], 32.3 µM (inactive); in experiment [15] it was 20.6 µM (inactive); in [16], 15.6 µM (inactive). Also, in experiment [18], the GI50 was 2.44 µM (inactive).
As to `N#CC(C/C=C/c1ccccc1)NNC(=O)c1c(Cl)c(Cl)c(Cl)c(Cl)c1-c1nc2cc(C(=O)c3ccccc3)ccc2[nH]1` (centres undefined), the GI50 is 18.2 µM (inactive) in experiment [1]; 25.9 µM (inactive) in experiment [2]; 14 µM (inactive) in [3]; 12 µM (inactive) in experiment [4]; 9.86 µM (inactive) in experiment [5]; 16.3 µM (inactive) in [6]. The GI50 in experiment [7] is 14.9 µM (inactive); in [8] it was 9.53 µM (inactive); in [9], 17.4 µM (inactive); in [11], 22.8 µM (inactive); in experiment [12], 16.4 µM (inactive); in experiment [13], 7.53 µM (inactive). Further, the GI50 in experiment [14] is 23.4 µM (inactive); in experiment [15], 17.7 µM (inactive); in [16], 16.1 µM (inactive); in experiment [17] it was 3.92 µM (inactive); in experiment [18] it was 13.5 µM (inactive).
Take `COC(=O)C1(C#N)C(C)(C)N=C(c2ccccc2)C12CCCCC2` (centres undefined): the GI50 was > 100 µM (inactive) in [1]; > 100 µM (inactive) in [3]; > 100 µM (inactive) in experiment [4]; > 100 µM (inactive) in [5]; 63.4 µM (inactive) in experiment [6]; > 100 µM (inactive) in experiment [7]. For the same compound, the GI50 in [8], in [10], in experiment [11], in experiment [12], in experiment [13] and in [14] was > 100 µM (inactive) each time. Also, the GI50 in [16] was > 100 µM (inactive); in experiment [17], 56.4 µM (inactive); in experiment [18], > 100 µM (inactive); in experiment [19], > 100 µM (inactive).
Regarding `CC(C)[C@H]1C(=O)O[B@-](F)(c2ccccc2)/[N+]1=C\N(C)C`, the GI50 in experiment [1] is > 100 µM (inactive); in [2], > 100 µM (inactive); in experiment [3] it was 30.1 µM (inactive); in [4], > 100 µM (inactive); in [6], > 100 µM (inactive); in experiment [7] it was > 100 µM (inactive). In addition, the GI50 in experiment [9], in experiment [10], in [11], in experiment [12], in [13] and in experiment [15] was > 100 µM (inactive) each time. Moreover, the GI50 in [16], in [17], in [18] and in [19] was > 100 µM (inactive) throughout.
As to `COc1cc2cc(C(=O)N3CC(COS(C)(=O)=O)c4c3cc(N)c3ccccc43)[nH]c2c(OC)c1OC` (centres undefined), the GI50 in experiment [1] is 0.0228 µM (active); in [2] it was < 0.01 µM (active); in experiment [3] it was < 0.0376 µM (active); in [4], 0.0385 µM (active); in experiment [5] it was 0.0177 µM (active); in experiment [6], 0.0175 µM (active). Also, the GI50 was 0.0169 µM (active) in experiment [7]; 0.0177 µM (active) in experiment [8]; < 0.01 µM (active) in experiment [9]; 0.0188 µM (active) in experiment [10]; < 0.01 µM (active) in [11]; < 0.01 µM (active) in experiment [12]. The GI50 in [13] is 0.0404 µM (active); in experiment [14] it was 0.0194 µM (active); in [15], 0.0469 µM (active); in [16] it was < 0.01 µM (active); in [17], 0.0195 µM (active); in [18], 0.0172 µM (active).
In the case of `C=CCC1OC(=O)CCNC(=O)C(C)N(C)C(=O)C(C(C)C)N(C)C(=O)C(C(C)CC)NC(=O)C2CCCN2C1=O` (centres undefined) (cyclo([X35]PI[NMeV][NMeA][βAla]); configuration not given here), the GI50 in [1] was 7.06 µM (inactive); in [2], 18.4 µM (inactive); in experiment [3], 66.8 µM (inactive); in experiment [4], 20.8 µM (inactive); in experiment [5] it was 45.1 µM (inactive); in experiment [6], 2.62 µM (inactive). For the same compound, the GI50 was 30.5 µM (inactive) in experiment [7]; 1.25 µM (inactive) in experiment [9]; 81.1 µM (inactive) in experiment [10]; > 100 µM (inactive) in experiment [11]; 4.61 µM (inactive) in experiment [12]; 2.16 µM (inactive) in experiment [13]. Besides, the GI50 in [14] was 10.8 µM (inactive); in experiment [16] it was 3.91 µM (inactive); in experiment [17], 4.08 µM (inactive); in experiment [18], 1.85 µM (inactive).
